Patent publication US9376429B2, “Sodium channel blockers, preparation method thereof and use thereof” (Daewoong Pharmaceutical Co., Ltd., priority 2012, dated 2016)

Target: T1, sodium ion channel (Nav1.7) (Homo sapiens, UniProt Q15858)
T1 construct: host or cells: HEK293
Assay: Blocking effect against sodium ion channel (Nav1.7), IonFlux16 auto patch clamp, hNav1.7 HEK293 cells
Assay type: cell-based
Conditions: peak current after 50 seconds treatment, eight concentrations
Method: In order to measure the activities of the inventive compounds as antagonists, an experiment on a blocking effect against the sodium ion channel (Nav1.7) was carried out as follows.
The hNav1.7 HEK293 cell line used was a cell line having a human sodium ion channel 1.7 gene (type IX voltage-gated sodium channel alpha subunit) in human embryonic kidney (HEK) 293 cells and was purchased from Millipore. The medium used was prepared by adding 1% 100×NEAA and 10% heat inactivated FBS to DMEM F-12 and adding 1% P/S as an antibiotic thereto. G-418 as a […] was added during subculture, and the hNav1.7 HEK293 cells were cultured to a confluence of about 80% in a T75 flask in a 5% CO2 incubator at 37° C. for 2 or 3 days and detached from the flask by treatment with 0.25% trypsin solution. Then, the cells were collected by centrifugation and used in the experiment.
The compounds prepared in the Examples of the present invention were dissolved in dimethyl sulfoxide (DMSO) and used in the experiment. 90 mM and 10 mM DMSO stock solutions were prepared from each of the compounds and diluted in an extracellular solution (4 mM KCl, 138 mM NaCl, 1 mM MgCl2, 1.8 mM CaCl2, 5.6 mM glucose, 10 mM HEPES, pH 7.45) at various concentrations so that the final concentration of each compound in DMSO was 0.3% or less.
To measure the sodium ion channel blocking effect, an IonFlux16 Auto patch clamp system (Fluxion, Inc.) and a plate for exclusive use were used. The cells were distributed in an extracellular solution (4 mM KCl, 138 mM NaCl, 1 mM MgCl2, 1.8 mM CaCl2, 5.6 mM glucose, 10 mM HEPES, pH 7.45), and then dispensed in the specified region of the plate, and each of the prepared compound samples was diluted at various concentrations, and then dispensed in the specified region of the plate.
Specifically, eight concentrations per compound were set, and percent inhibition was determined by calculating the percentage of inhibition of the peak current, generated after treating the cells with each concentration of the compound for 50 seconds, relative to the peak current generated before treatment with the compound, and the IC50 value was calculated using the Sigma plot program. In Table 2 below, the percent inhibition of Nav1.7 is rated as follows: […]

T1 sequence (Q15858 whole entry): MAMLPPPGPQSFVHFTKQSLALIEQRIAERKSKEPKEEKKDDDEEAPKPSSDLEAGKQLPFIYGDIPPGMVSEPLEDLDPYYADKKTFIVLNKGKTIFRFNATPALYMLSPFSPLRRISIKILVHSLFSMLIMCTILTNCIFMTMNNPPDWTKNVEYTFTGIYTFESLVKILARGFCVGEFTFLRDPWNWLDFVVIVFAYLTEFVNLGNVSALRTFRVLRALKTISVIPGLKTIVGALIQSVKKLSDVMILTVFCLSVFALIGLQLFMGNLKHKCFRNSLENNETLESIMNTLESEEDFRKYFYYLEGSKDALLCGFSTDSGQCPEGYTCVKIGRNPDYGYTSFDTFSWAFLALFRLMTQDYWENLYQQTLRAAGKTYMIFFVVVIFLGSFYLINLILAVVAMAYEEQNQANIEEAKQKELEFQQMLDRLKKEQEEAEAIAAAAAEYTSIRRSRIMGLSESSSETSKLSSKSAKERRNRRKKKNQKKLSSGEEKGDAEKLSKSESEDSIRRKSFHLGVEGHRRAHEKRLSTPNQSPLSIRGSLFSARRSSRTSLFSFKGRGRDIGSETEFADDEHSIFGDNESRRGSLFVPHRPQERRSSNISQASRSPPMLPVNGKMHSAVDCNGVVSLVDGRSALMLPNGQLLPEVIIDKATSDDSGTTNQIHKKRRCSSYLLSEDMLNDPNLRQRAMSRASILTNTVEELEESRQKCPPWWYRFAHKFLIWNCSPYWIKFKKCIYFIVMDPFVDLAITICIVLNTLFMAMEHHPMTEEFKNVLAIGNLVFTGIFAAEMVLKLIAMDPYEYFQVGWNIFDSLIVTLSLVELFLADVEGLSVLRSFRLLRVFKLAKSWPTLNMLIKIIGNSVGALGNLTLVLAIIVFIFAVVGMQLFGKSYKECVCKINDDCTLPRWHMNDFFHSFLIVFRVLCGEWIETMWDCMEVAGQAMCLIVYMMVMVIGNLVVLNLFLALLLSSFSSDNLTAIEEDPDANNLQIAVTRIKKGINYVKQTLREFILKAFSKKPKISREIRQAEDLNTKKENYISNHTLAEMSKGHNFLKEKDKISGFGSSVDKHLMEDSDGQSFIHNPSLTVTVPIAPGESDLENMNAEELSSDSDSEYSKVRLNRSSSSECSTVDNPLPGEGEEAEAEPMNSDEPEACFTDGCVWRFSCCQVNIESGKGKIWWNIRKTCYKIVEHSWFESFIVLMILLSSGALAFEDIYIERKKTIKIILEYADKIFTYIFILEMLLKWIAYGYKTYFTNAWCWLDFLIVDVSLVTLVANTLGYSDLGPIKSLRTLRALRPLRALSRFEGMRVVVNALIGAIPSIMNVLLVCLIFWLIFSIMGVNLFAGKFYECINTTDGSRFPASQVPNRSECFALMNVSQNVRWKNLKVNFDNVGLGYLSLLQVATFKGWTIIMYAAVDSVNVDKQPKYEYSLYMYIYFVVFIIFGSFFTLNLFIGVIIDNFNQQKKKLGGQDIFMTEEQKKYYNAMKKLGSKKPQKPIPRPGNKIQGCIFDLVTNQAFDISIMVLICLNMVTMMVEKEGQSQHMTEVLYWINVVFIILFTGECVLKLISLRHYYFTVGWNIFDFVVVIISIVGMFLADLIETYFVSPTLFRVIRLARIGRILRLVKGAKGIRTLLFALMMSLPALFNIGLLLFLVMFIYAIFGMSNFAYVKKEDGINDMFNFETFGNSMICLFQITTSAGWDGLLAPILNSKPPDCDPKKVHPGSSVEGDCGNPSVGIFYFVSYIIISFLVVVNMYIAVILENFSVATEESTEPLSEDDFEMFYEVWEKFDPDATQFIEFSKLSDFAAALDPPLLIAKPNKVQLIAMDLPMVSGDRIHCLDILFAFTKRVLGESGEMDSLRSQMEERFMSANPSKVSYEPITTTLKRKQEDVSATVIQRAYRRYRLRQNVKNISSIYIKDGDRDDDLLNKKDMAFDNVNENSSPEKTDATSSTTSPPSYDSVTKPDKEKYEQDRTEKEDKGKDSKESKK

Row | IC50 | SMILES
1 | < 50 nM | N#Cc1cc(S(=O)(=O)Nc2nccs2)ccc1Oc1cnc(-c2ccccc2)cc1-c1ccoc1 [Example 1, 3-cyano-4-(4-(furan-3-yl)-6-phenylpyridin-3-yloxy)-N-(thiazol-2-yl)benzenesolfonamide]
2 | < 50 nM | N#Cc1cc(S(=O)(=O)Nc2nccs2)ccc1Oc1cnc(-c2cccc(F)c2)cc1-c1ccoc1 [Example 5, 3-cyano-4-(6-(3-fluorophenyl)-4-(furan-3-yl)pyridin-3-yloxy)-N-(thiazol-2-yl)benzenesulfonamide]
3 | 51 to 100 nM | N#Cc1cc(S(=O)(=O)Nc2nccs2)ccc1Oc1cnc(-c2ccc(F)cc2)cc1-c1ccoc1 [Example 7, 3-cyano-4-(6-(4-fluorophenyl)-4-(furan-3-yl)pyridin-3-yloxy)-N-(thiazol-2-yl)benzenesulfonamide]
4 | 51 to 100 nM | N#Cc1cc(S(=O)(=O)Nc2nccs2)ccc1Oc1cnc(-c2ccnc(F)c2)cc1-c1ccoc1 [Example 9, 3-cyano-4-(2′-fluoro-4-(furan-3-yl)-2,4′-bipyridin-5-yloxy)-N-(thiazol-2-yl)benzenesulfonamide]
5 | 51 to 100 nM | N#Cc1cc(S(=O)(=O)Nc2nccs2)ccc1Oc1cnc(-c2cccnc2F)cc1-c1ccoc1 [Example 10, 3-cyano-4-(2′-fluoro-4-(furan-3-yl)-2,3′-bipyridin-5-yloxy)-N-(thiazol-2-yl)benzenesulfonamide]
6 | 51 to 100 nM | N#Cc1cc(S(=O)(=O)Nc2nccs2)ccc1Oc1cnc(-c2ccc(F)nc2)cc1-c1ccoc1 [Example 11, 3-cyano-4-(6′-fluoro-4-(furan-3-yl)-2,3′-bipyridin-5-yloxy)-N-(thiazol-2-yl)benzenesulfonamide]
7 | > 100 nM | N#Cc1cc(S(=O)(=O)Nc2nccs2)ccc1Oc1cnc(-c2cccnc2)cc1-c1ccoc1 [Example 13, 3-cyano-4-(4-(furan-3-yl)-2,3′-bipyridin-5-yloxy)-N-(thiazol-2-yl)benzenesulfonamide]
8 | > 100 nM | N#Cc1cc(S(=O)(=O)Nc2nccs2)ccc1Oc1cnc(-c2ccncc2)cc1-c1ccoc1 [Example 14, 3-cyano-4-(4-(furan-3-yl)-2,4′-bipyridin-5-yloxy)-N-(thiazol-2-yl)benzenesulfonamide]
9 | > 100 nM | N#Cc1cc(S(=O)(=O)Nc2nccs2)ccc1Oc1cnc(-c2cncnc2)cc1-c1ccoc1 [Example 15, 3-cyano-4-(4-(furan-3-yl)-6-(pyrimidin-5-yl)pyridin-3-yloxy)-N-(thiazol-2-yl)benzenesulfonamide]
10 | < 50 nM | N#Cc1cc(S(=O)(=O)Nc2nccs2)ccc1Oc1cnc(-c2ccoc2)cc1-c1ccoc1 [Example 16, 3-cyano-4-((4,6-di(furan-3-yl)pyridin-3-yl)oxy)-N-(thiazol-2-yl)benzenesulfonamide]
11 | > 100 nM | N#Cc1cc(S(=O)(=O)Nc2nccs2)ccc1Oc1cnc(-c2ccsc2)cc1-c1ccoc1 [Example 20, 3-cyano-4-((4-(furan-3-yl)-6-(thiophen-3-yl)pyridin-3-yl)oxy)-N-(thiazol-2-yl)benzenesulfonamide]

More lines, now with the values behind:

Row | SMILES | IC50
12 | Cn1nccc1-c1cc(-c2ccccc2)ncc1Oc1ccc(S(=O)(=O)Nc2nccs2)cc1C#N [Example 2] | > 100 nM
13 | N#Cc1cc(S(=O)(=O)Nc2ncns2)ccc1Oc1cnc(-c2ccccc2)cc1-c1ccoc1 [Example 3, 3-cyano-4-(4-(furan-3-yl)-6-phenylpyridin-3-yloxy)-N-(1,2,4-thiadiazol-5-yl)benzenesulfonamide] | < 50 nM
14 | Cn1nccc1-c1cc(-c2ccccc2)ncc1Oc1ccc(S(=O)(=O)Nc2ncns2)cc1C#N [Example 4, 3-cyano-4-((4-(1-methyl-1H-pyrazol-5-yl)-6-phenylpyridin-3-yl)oxy)-N-(1,2,4-thiadiazol-5-yl)benzenesulfonamide] | 51 to 100 nM
15 | N#Cc1cc(S(=O)(=O)Nc2nccs2)ccc1Oc1cnc(-c2ccccc2F)cc1-c1ccoc1 [Example 6, 3-cyano-4-(6-(2-fluorophenyl)-4-(furan-3-yl)pyridin-3-yloxy)-N-(thiazol-2-yl)benzenesulfonamide] | > 100 nM
16 | N#Cc1cc(S(=O)(=O)Nc2nccs2)ccc1Oc1cnc(-c2cccc(C(F)(F)F)c2)cc1-c1ccoc1 [Example 8, 3-cyano-4-(4-(furan-3-yl)-6-(3-(trifluoromethyl)phenyl)pyridin-3-yloxy)-N-(thiazol-2-yl)benzenesulfonamide] | > 100 nM
17 | N#Cc1cc(S(=O)(=O)Nc2nccs2)ccc1Oc1cnc(-c2ccc(F)nc2F)cc1-c1ccoc1 [Example 12, 3-cyano-4-(2′,6′-difluoro-4-(furan-3-yl)-2,3′-bipyridin-5-yloxy)-N-(thiazol-2-yl)benzenesulfonamide] | < 50 nM
18 | O=S(=O)(Nc1nccs1)c1ccc(Oc2cnc(-c3ccoc3)cc2-c2ccoc2)c(F)c1 [Example 17, 4-((4,6-di(furan-3-yl)pyridin-3-yl)oxy)-3-fluoro-N-(thiazol-2-yl)benzenesulfonamide] | > 100 nM
19 | Cn1nccc1-c1cc(-c2cccnc2F)ncc1Oc1ccc(S(=O)(=O)Nc2nccs2)cc1C#N [Example 18, 3-cyano-4-((2′-fluoro-4-(1-methyl-1H-pyrazol-5-yl)-[2,3′-bipyridin]-5-yl)oxy)-N-(thiazol-2-yl)benzenesulfonamide] | > 100 nM
20 | Cn1nccc1-c1cc(-c2ccc(F)nc2)ncc1Oc1ccc(S(=O)(=O)Nc2nccs2)cc1C#N [Example 19, 3-cyano-4-((6′-fluoro-4-(1-methyl-1H-pyrazol-5-yl)-[2,3′-bipyridin]-5-yl)oxy)-N-(thiazol-2-yl)benzenesulfonamide] | > 100 nM
21 | Cn1nccc1-c1cc(-c2cccnc2)ncc1Oc1ccc(S(=O)(=O)Nc2nccs2)cc1F [Example 21, 3-fluoro-4-((4-(1-methyl-1H-pyrazol-5-yl)-[2,3′-bipyridin]-5-yl)oxy)-N-(thiazol-2-yl)benzenesulfonamide] | > 100 nM
22 | Cn1nccc1-c1cc(-c2ccsc2)ncc1Oc1ccc(S(=O)(=O)Nc2nccs2)cc1F [Example 22, 3-fluoro-4-((4-(1-methyl-1H-pyrazol-5-yl)-6-(thiophen-3-yl)pyridin-3-yl)oxy)-N-(thiazol-2-yl)benzenesulfonamide] | 51 to 100 nM
23 | Cn1nccc1-c1cc(-c2ccc(F)cc2)ncc1Oc1ccc(S(=O)(=O)Nc2nccs2)cc1C#N [Example 23, 3-cyano-4-((6-(4-fluorophenyl)-4-(1-methyl-1H-pyrazol-5-yl)pyridin-3-yl)oxy)-N-(thiazol-2-yl)benzenesulfonamide] | > 100 nM
24 | Cn1nccc1-c1cc(-c2ccccc2F)ncc1Oc1ccc(S(=O)(=O)Nc2nccs2)cc1C#N [Example 24, 3-cyano-4-((6-(2-fluorophenyl)-4-(1-methyl-1H-pyrazol-5-yl)pyridin-3-yl)oxy)-N-(thiazol-2-yl)benzenesulfonamide] | > 100 nM
25 | Cn1nccc1-c1cc(-c2ccoc2)ncc1Oc1ccc(S(=O)(=O)Nc2nccs2)cc1C#N [Example 25, 3-cyano-4-((6-(furan-3-yl)-4-(1-methyl-1H-pyrazol-5-yl)pyridin-3-yl)oxy)-N-(thiazol-2-yl)benzenesulfonamide] | > 100 nM
26 | Cn1nccc1-c1cc(-c2cccc(F)c2)ncc1Oc1ccc(S(=O)(=O)Nc2nccs2)cc1C#N [Example 26, 3-cyano-4-((6-(3-fluorophenyl)-4-(1-methyl-1H-pyrazol-5-yl)pyridin-3-yl)oxy)-N-(thiazol-2-yl)benzenesulfonamide] | 51 to 100 nM
